From US11987589B2, “Heterocyclic flavone derivatives, compositions, and methods related thereto” (Emory University, priority 2018, dated 2024) come the findings set out here.

Like-named read-outs stand apart in the source and are kept apart here. Where only a bound is given, the exact number is not on record here.

The conditions of data set [1]: human, hepatocytes.
The conditions of data set [2]: mouse, hepatocytes.
A short description of the next data set: BBB-PAMPA Permeability. The format is in vitro ADME.
Data set [3] can be described thus: Hepatocyte Stability (human). Conditions: hepatocytes.
Data set [4] can be described thus: Hepatocyte Stability (mouse). Conditions: hepatocytes.
Data set [5] can be described thus: Microsomal Intrinsic Clearance (human). Conditions: liver microsomes; for microsomal CLint: Human microsomes.
Data set [6] in a line: Microsomal Intrinsic Clearance (mouse). Conditions: liver microsomes; for microsomal CLint: Mouse microsomes.
A short description of the next data set: Plasma Stability (human). Type of data set: in vitro ADME.
The next data set can be described thus: Plasma Stability (mouse). The format is in vitro ADME.
Data set [7] has as its target T1, TrkB (Rattus norvegicus, UniProt Q63604).
T1 construct: expressed in transfected cells
Put plainly: TrkB activation in rat TrkB stably transfected SN56 cells (T48), immunoblotting. The format is cell-based. The conditions noted are these: different doses, 15 min.

A further data set deals with T48 cells. Put plainly: Protection from staurosporine (STS)-induced apoptosis, MTT assay, T48 cells. The format is cell-based. The protocol:
Cytoprotective effects were tested. To examine whether these compounds protect cells from staurosporine (STS)-induced apoptosis, MTT assays were conducted using TrkB stable transfected cells or TrkB deficient SN56 cells.

Data set [8] has as its system TrkB. The data set can be described thus: Endogenous TrkB activation in DIV13 primary cortical cultures, immunoblotting. Conditions: 15 min. Type of data set: cell-based. The protocol: Endogenous TrkB activation in primary neurons were tested in DIV13 primary cortical cultures. The neurons were treated with the two compounds with doses for 15 min. The lysates were analyzed by immunoblotting with antibodies.

[9] abbreviates: NADPH-dependent CLint, with NADPH.
Setting [10] is: NADPH-dependent T1/2, Human microsomes, with NADPH.
Setting [11] is: NADPH-free T1/2, Human microsomes, NADPH-free.
[12] abbreviates: NADPH-dependent T1/2, Mouse microsomes, with NADPH.
Where [13] appears, read: NADPH-free T1/2, Mouse microsomes, NADPH-free.

T1 sequence (Q63604 32-821): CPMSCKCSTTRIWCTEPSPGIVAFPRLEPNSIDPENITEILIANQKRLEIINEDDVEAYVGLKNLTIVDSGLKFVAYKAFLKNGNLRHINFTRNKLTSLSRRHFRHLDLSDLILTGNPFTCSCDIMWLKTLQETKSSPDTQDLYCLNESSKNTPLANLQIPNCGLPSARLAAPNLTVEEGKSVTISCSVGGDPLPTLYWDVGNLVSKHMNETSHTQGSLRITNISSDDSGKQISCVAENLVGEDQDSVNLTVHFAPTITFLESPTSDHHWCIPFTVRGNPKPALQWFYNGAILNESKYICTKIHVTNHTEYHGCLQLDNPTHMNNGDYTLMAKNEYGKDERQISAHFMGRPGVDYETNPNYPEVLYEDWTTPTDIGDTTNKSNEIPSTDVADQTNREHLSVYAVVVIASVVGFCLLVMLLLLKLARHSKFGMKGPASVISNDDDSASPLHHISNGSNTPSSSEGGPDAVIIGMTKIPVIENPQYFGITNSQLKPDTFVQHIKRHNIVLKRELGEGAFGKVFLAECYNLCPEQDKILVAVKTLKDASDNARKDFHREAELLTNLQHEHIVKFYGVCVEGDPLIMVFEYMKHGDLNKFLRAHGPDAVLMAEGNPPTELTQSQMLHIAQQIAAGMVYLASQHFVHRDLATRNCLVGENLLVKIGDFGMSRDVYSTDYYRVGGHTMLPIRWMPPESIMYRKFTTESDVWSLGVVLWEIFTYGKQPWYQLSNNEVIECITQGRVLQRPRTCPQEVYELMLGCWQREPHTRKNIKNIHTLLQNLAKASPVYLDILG

Regarding `O=c1ccc2ccc(O)cc2o1` [7-OH-Coumarin], in data set [1], the “Avg % Remaining at Last Point” value is 7.17%, the Clearance was 88.5 μl/min/million cells and the “Half Life” value was 15.7 min. Moreover, in [2], the “Avg % Remaining at Last Point” value turned out to be 38.8%, the Clearance was 63.2 μl/min/million cells and the “Half Life” value was 21.9 min.

As to `CC(C)NCC(O)COc1ccc(CC(N)=O)cc1` (stereo not drawn) [Atenolol, reference compound], the recovery at 10 μM in “BBB-PAMPA Permeability” (Test Conc. 10 μM) came out at 84.6%.

With `Cc1ncc2n1-c1ccc(Cl)cc1C(c1ccccc1F)=NC2` [Midazolam, reference compound], the “Avg % Remaining at Last Point” value stood at 9.82% in [3] and 34.0% in data set [4]. Besides, the half-life in [3] was 35.7 min; in data set [4], 39.4 min; in [5] (setting [10]) it was 4.52 min; in [5] (setting [11]), over 180 min; in data set [6] (setting [12]), 2.1 min; in data set [6] (setting [13]) it was over 180 min. The intrinsic clearance (hepatocyte CLint) in [3] was found to be 38.8 µL/min/1e6 cells; in data set [4], 35.1 µL/min/1e6 cells. Besides, the intrinsic metabolic clearance (microsomal CLint) was 511 µL/min/mg in data set [5] (setting [9]); under 12.8 µL/min/mg in data set [5] (NADPH-free CLint, NADPH-free); 1100 µL/min/mg in data set [6] (setting [9]); under 12.8 µL/min/mg in [6] (NADPH-free CLint, NADPH-free).

Consider `CC(C)[N+](C)(CCOC(=O)C1c2ccccc2Oc2ccccc21)C(C)C` [Propantheline, reference compound], for which the “Avg % Remaining at Last Point” value in “Plasma Stability (human)” is 3.15%. Further, the half-life in the data set “Plasma Stability (human)” worked out at 23.9 min; in “Plasma Stability (mouse)”, 22.2 min.

Take `Cn1c(=O)[nH]c2ccc3c(=O)cc(-c4ccc(C#N)cc4)oc3c21` [RM-CN, 4-(1-methyl-2,6-dioxo-1,2,3,6-tetrahydrochromeno[7,8-d]imidazol-8-yl)benzonitrile]: the Pe in the data set “BBB-PAMPA Permeability” (Test Conc. 1 μM) is on record as 2.82. Moreover, the recovery at 1 μM in the data set “BBB-PAMPA Permeability” (Test Conc. 1 μM) is 71%. The “Avg % Remaining at Last Point” value in the data set “Plasma Stability (human)” was found to be 91.1%; in the data set “Plasma Stability (mouse)” it was 80.3%; in data set [3], 54.8%; in [4], 67.1%. Besides, the half-life is over 480 min in “Plasma Stability (human)”; 345 min in the data set “Plasma Stability (mouse)”; 133 min in data set [3]; 275 min in [4]; 76.2 min in data set [5] (setting [10]); over 180 min in data set [5] (setting [11]). In addition, the half-life in data set [6] (setting [12]) was 10 min; in data set [6] (setting [13]), over 180 min. In addition, the “effects on p-TrkB 816” value on TrkB [7] is on record as “behaved inversely”. The p-Akt/p-MAPK downstream signals result at TrkB [7] is “increased in a dose-dependent manner”. Also, at TrkB [7], the “p-TrkB 706 activation” value is listed as “activated p-TrkB 706 gradually”. This molecule yielded an EC50 in the data set with T48 cells of 0.0125 µM. Further, in the data set with TrkB [8], the “TrkB activation in primary neurons” value is recorded as “dose-dependent effect in triggering TrkB activation”. The hepatocyte CLint worked out at 10.5 µL/min/1e6 cells in [3] and 5.04 µL/min/1e6 cells in data set [4]. For the same molecule, the intrinsic clearance (microsomal CLint) is 30.3 µL/min/mg in [5] (setting [9]); under 12.8 µL/min/mg in data set [5] (NADPH-free CLint, NADPH-free); 231 µL/min/mg in data set [6] (setting [9]); under 12.8 µL/min/mg in data set [6] (NADPH-free CLint, NADPH-free).

As for `CC(=O)CC(c1ccccc1)c1c(O)c2ccccc2oc1=O` (stereo not drawn) [Warfarin, reference compound], the “Avg % Remaining at Last Point” value in the data set “Plasma Stability (human)” is 93.6%; in “Plasma Stability (mouse)”, 80.8%.
